The text below walks through data of US10780090B2, “Heteroaryl compounds useful as inhibitors of SUMO activating enzyme” (Millennium Pharmaceuticals, Inc., priority 2014, dated 2020).

Where two headings read alike, the source gives them in different places.

The target in this assay is recombinant human SAE enzyme (Homo sapiens (Human), UniProt Q9UBT2). Briefly: SAE HTRF enzyme assay. Format: biochemical. The settings on record: for inhibition at 0.111 µM: read-out: Percent Inhibition. The gist of the method:
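First, recombinant human SAE (0.11 nM) transfers Sumo-Flag onto Ubc9-GST using 0.5 μM ATP for 105 min at 24° C. Next, EDTA-containing detection buffer with labelled anti-Flag and anti-GST antibodies is added for 2 h. Finally, FRET is quantified and percent inhibition or IC50 derived.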
A general note: Time-resolved FRET reads energy transfer from a long-lived donor to a nearby acceptor.

Setting [1] is: SAE inhibition at compound concentration 0.111 μM.
Where [2] appears, read: SAE inhibition, class symbols, legend in nM.

Sequence of recombinant human SAE enzyme (Q9UBT2 whole entry): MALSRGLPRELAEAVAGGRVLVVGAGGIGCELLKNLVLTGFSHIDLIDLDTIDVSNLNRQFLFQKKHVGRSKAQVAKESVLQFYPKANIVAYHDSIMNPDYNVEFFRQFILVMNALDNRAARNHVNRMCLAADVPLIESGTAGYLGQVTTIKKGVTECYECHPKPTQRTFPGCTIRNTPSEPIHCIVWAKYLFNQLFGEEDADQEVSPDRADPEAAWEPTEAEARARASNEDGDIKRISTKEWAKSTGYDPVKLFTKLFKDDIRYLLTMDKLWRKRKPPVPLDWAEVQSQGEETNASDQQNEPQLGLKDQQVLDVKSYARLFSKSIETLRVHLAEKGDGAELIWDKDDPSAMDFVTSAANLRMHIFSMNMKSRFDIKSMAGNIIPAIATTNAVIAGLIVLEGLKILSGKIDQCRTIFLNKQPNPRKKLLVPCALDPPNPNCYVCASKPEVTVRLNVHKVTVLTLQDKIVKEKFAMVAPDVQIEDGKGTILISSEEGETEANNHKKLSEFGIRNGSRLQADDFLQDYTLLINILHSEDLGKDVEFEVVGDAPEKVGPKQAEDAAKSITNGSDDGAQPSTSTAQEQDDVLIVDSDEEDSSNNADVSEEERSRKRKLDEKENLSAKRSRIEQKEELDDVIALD
Sequence of recombinant human SAE enzyme (Q9UBE0 whole entry partner): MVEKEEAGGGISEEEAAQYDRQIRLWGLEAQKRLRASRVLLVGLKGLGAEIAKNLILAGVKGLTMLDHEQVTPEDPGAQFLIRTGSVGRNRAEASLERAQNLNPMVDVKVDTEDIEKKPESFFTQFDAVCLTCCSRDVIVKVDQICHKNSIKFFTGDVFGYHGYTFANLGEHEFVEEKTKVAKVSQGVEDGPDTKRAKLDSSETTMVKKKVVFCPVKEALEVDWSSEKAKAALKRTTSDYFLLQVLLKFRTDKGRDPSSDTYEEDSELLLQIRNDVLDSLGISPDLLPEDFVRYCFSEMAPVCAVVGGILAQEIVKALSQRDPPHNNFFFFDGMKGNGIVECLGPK

As usually defined, the IC50 is the concentration at which inhibition is half-maximal. Take `NS(=O)(=O)OC[C@H]1C[C@@H](Nc2ncncc2C(=O)c2cc([C@H](O)c3cccc(Cl)c3)cs2)C[C@@H]1O` (single isomer, unassigned) [I-4a, [(1R,2S,4R)-4-{[5-({4-[(R)-(3-chlorophenyl)(hydroxy)methyl]-2-thienyl}carbonyl)pyrimidin-4-yl]amino}-2-hydroxycyclopentyl]methyl sulfamate or [(1R,2S,4R)-4-{[5-({4-[(S)-(3-chlorophenyl)(hydroxy)methyl]-2-thienyl}carbonyl)pyrimidin-4-yl]amino}-2-hydroxycyclopentyl]methyl sulfamate]: the “Percent Inhibition” value (Concentration 0.111 μM) amounted to 99. Where the note is “class symbols A/B/C”, the IC50 was less than 10 nM.
As for `NS(=O)(=O)OC[C@H]1C[C@@H](Nc2ncncc2C(=O)c2cc([C@]3(c4cccc(Cl)c4)CCO3)c(Cl)s2)C[C@@H]1O` (mixture of isomers) [I-67, [(1R,2S,4R)-4-{[5-({5-chloro-4-[(2R)-2-(3-chlorophenyl)oxetan-2-yl]-2-thienyl}carbonyl)pyrimidin-4-yl]amino}-2-hydroxycyclopentyl]methyl sulfamate and [(1R,2S,4R)-4-{[5-({5-chloro-4-[(2S)-2-(3-chlorophenyl)oxetan-2-yl]-2-thienyl}carbonyl)pyrimidin-4-yl]amino}-2-hydroxycyclopentyl]methyl sulfamate], the “Percent Inhibition” value (Concentration 0.111 μM) stood at 99. In addition, the 50% inhibitory concentration (IC50) (class symbols A/B/C) was less than 10 nM.
On the same counts, the results for `NS(=O)(=O)OC[C@H]1C[C@@H](Nc2ncncc2C(=O)c2cc([C@@H]3NCc4ccc(Cl)cc43)c(Cl)s2)C[C@@H]1O` (mixture of isomers) [I-262, [(1R,2S,4R)-4-{[5-({5-chloro-4-[(1R)-6-chloro-2,3-dihydro-1H-isoindol-1-yl]-2-thienyl}carbonyl)pyrimidin-4-yl]amino}-2-hydroxycyclopentyl]methyl sulfamate and [(1R,2S,4R)-4-{[5-({5-chloro-4-[(1S)-6-chloro-2,3-dihydro-1H-isoindol-1-yl]-2-thienyl}carbonyl)pyrimidin-4-yl]amino}-2-hydroxycyclopentyl]methyl sulfamate] are 100 and less than 10 nM.
As for `CN1CCc2ccc(Cl)cc2[C@H]1c1csc(C(=O)c2cncnc2N[C@@H]2C[C@H](COS(N)(=O)=O)[C@@H](O)C2)c1` (mixture of isomers) [I-307, [(1R,2S,4R)-4-{[5-({4-[(1R)-7-chloro-2-methyl-1,2,3,4-tetrahydroisoquinolin-1-yl]-2-thienyl}carbonyl)pyrimidin-4-yl]amino}-2-hydroxycyclopentyl]methyl sulfamate and [(1R,2S,4R)-4-{[5-({4-[(1S)-7-chloro-2-methyl-1,2,3,4-tetrahydroisoquinolin-1-yl]-2-thienyl}carbonyl)pyrimidin-4-yl]amino}-2-hydroxycyclopentyl]methyl sulfamate], the “Percent Inhibition” value under setting [1] worked out at 95%. Besides, under setting [2], the 50% inhibitory concentration (IC50) is less than 10 nM.
Broadly, the inhibition is the share of the control response that was lost under treatment. As to `NS(=O)(=O)OC[C@H]1C[C@@H](Nc2ncncc2C(=O)c2cc(COc3cccc(Cl)c3)cs2)C[C@@H]1O` [I-120, [(1R,2S,4R)-4-{[5-({4-[(3-chlorophenoxy)methyl]-2-thienyl}carbonyl)pyrimidin-4-yl]amino}-2-hydroxycyclopentyl]methyl sulfamate], the inhibition at 0.111 µM (Concentration 0.111 μM) amounted to 97%. In addition, the IC50 (class symbols A/B/C) is less than 10 nM.
For `NS(=O)(=O)OC[C@H]1C[C@@H](Nc2ncncc2C(=O)c2cc([C@@H]3OCCc4ccc(F)cc43)cs2)C[C@@H]1O` (single isomer, unassigned) [I-267a, [(1R,2S,4R)-4-{[5-({4-[(1R)-7-fluoro-3,4-dihydro-1H-isochromen-1-yl]-2-thienyl}carbonyl)pyrimidin-4-yl]amino}-2-hydroxycyclopentyl]methyl sulfamate or [(1R,2S,4R)-4-{[5-({4-[(1S)-7-fluoro-3,4-dihydro-1H-isochromen-1-yl]-2-thienyl}carbonyl)pyrimidin-4-yl]amino}-2-hydroxycyclopentyl]methyl sulfamate], the “Percent Inhibition” value (Concentration 0.111 μM) was found to be 65. In addition, the IC50 (class symbols A/B/C) is 10 to 100 nM.
On the same counts, the results for `COCc1sc(C(=O)c2cncnc2N[C@@H]2C[C@H](COS(N)(=O)=O)[C@@H](O)C2)cc1C(O)c1cccc(Cl)c1` (single isomer, unassigned) [I-7b, [(1R,2S,4R)-4-{[5-({4-[(R)-(3-chlorophenyl)(hydroxy)methyl]-5-(methoxymethyl)-2-thienyl}carbonyl)pyrimidin-4-yl]amino}-2-hydroxycyclopentyl]methyl sulfamate or [(1R,2S,4R)-4-{[5-({4-[(S)-(3-chlorophenyl)(hydroxy)methyl]-5-(methoxymethyl)-2-thienyl}carbonyl)pyrimidin-4-yl]amino}-2-hydroxycyclopentyl]methyl sulfamate] are 98 and less than 10 nM.
For `Cc1sc(C(=O)c2cncnc2N[C@@H]2C[C@H](COS(N)(=O)=O)[C@@H](O)C2)cc1[C@@H]1SCc2ccc(Cl)cc21` (mixture of isomers) [I-359a, [(1RS,2SR,4RS)-4-[[5-[4-[(R)-6-chloro-1,3-dihydro-2-benzothiophene-1-yl]-5-methyl-thiophene-2-carbonyl]pyrimidin-4-yl]amino]-2-hydroxy-cyclopentyl]methyl sulfamate], under setting [1], the inhibition at 0.111 µM was 92%. Besides, under setting [2], the IC50 was in the range of 10 to 100 nM.
Regarding `CC(N)(c1cccc(Cl)c1)c1csc(C(=O)c2cncnc2N[C@@H]2C[C@H](COS(N)(=O)=O)[C@@H](O)[C@H]2O)c1` (single isomer, unassigned) [I-8a, [(1R,2R,3S,4R)-4-{[5-({4-[(1S)-1-amino-1-(3-chlorophenyl)ethyl]-2-thienyl}carbonyl)pyrimidin-4-yl]amino}-2,3-dihydroxycyclopentyl]methyl sulfamate or [(1R,2R,3S,4R)-4-{[5-({4-[(1R)-1-amino-1-(3-chlorophenyl)ethyl]-2-thienyl}carbonyl)pyrimidin-4-yl]amino}-2,3-dihydroxycyclopentyl]methyl sulfamate], the “Percent Inhibition” value (Concentration 0.111 μM) came to 96. For the same compound, the IC50 (class symbols A/B/C) was less than 10 nM.
With `NS(=O)(=O)OC[C@H]1C[C@@H](Nc2ncncc2C(=O)c2cc(C(O)c3cccc(Cl)n3)cs2)C[C@@H]1O` (single isomer, unassigned) [I-29a, [(1R,2S,4R)-4-{[5-({4-[(S)-(6-chloropyridin-2-yl)(hydroxy)methyl]-2-thienyl}carbonyl)pyrimidin-4-yl]amino}-2-hydroxycyclopentyl]methyl sulfamate or [(1R,2S,4R)-4-{[5-({4-[(R)-(6-chloropyridin-2-yl)(hydroxy)methyl]-2-thienyl}carbonyl)pyrimidin-4-yl]amino}-2-hydroxycyclopentyl]methyl sulfamate], the “Percent Inhibition” value (Concentration 0.111 μM) was 97. Moreover, for the setting “class symbols A/B/C”, the 50% inhibitory concentration (IC50) was less than 10 nM.
`NS(=O)(=O)OC[C@H]1C[C@@H](Nc2ncncc2C(=O)c2cc(CSc3ccccc3)cs2)C[C@@H]1O` [I-177, [(1R,2S,4R)-2-hydroxy-4-{[5-({4-[(phenylsulfanyl)methyl]-2-thienyl}carbonyl)pyrimidin-4-yl]amino}cyclopentyl]methyl sulfamate]: under “Concentration 0.111 μM”, the inhibition at 0.111 µM is 85%. Besides, the IC50 (class symbols A/B/C) fell in the range of 10 to 100 nM.
Take `NS(=O)(=O)OC[C@H]1C[C@@H](Nc2ncncc2C(=O)c2cc([C@@H]3NCc4ccc(Cl)cc43)c(Cl)s2)C[C@@H]1O` (single isomer, unassigned) [I-262b, [(1R,2S,4R)-4-{[5-({5-chloro-4-[(1R)-6-chloro-2,3-dihydro-1H-isoindol-1-yl]-2-thienyl}carbonyl)pyrimidin-4-yl]amino}-2-hydroxycyclopentyl]methyl sulfamate or [(1R,2S,4R)-4-{[5-({5-chloro-4-[(1S)-6-chloro-2,3-dihydro-1H-isoindol-1-yl]-2-thienyl}carbonyl)pyrimidin-4-yl]amino}-2-hydroxycyclopentyl]methyl sulfamate]: the “Percent Inhibition” value (Concentration 0.111 μM) was found to be 98. Also, the concentration for half-maximal inhibition (IC50) (class symbols A/B/C) was less than 10 nM.
As to `Cc1sc(C(=O)c2cncnc2N[C@@H]2C[C@H](COS(N)(=O)=O)[C@@H](O)C2)cc1Cn1cc(Br)cc1C#N` [I-148, [(1R,2S,4R)-4-{[5-({4-[(4-bromo-2-cyano-1H-pyrrol-1-yl)methyl]-5-methyl-2-thienyl}carbonyl)pyrimidin-4-yl]amino}-2-hydroxycyclopentyl]methyl sulfamate], the inhibition at 0.111 µM (Concentration 0.111 μM) turned out to be 91%. For the same compound, the half-maximal inhibitory concentration (IC50) (class symbols A/B/C) is less than 10 nM.
For `NS(=O)(=O)OC[C@H]1C[C@@H](Nc2ncncc2C(=O)c2cc([C@H](O)c3cccc(Cl)n3)c(Cl)s2)C[C@@H]1O` (single isomer, unassigned) [I-2a, [(1R,2S,4R)-4-{[5-({5-chloro-4-[(S)-(6-chloropyridin-2-yl)(hydroxy)methyl]-2-thienyl}carbonyl)pyrimidin-4-yl]amino}-2-hydroxycyclopentyl]methyl sulfamate or [(1R,2S,4R)-4-{[5-({5-chloro-4-[(R)-(6-chloropyridin-2-yl)(hydroxy)methyl]-2-thienyl}carbonyl)pyrimidin-4-yl]amino}-2-hydroxycyclopentyl]methyl sulfamate], the “Percent Inhibition” value (Concentration 0.111 μM) was 99. Further, for the setting “class symbols A/B/C”, the IC50 is less than 10 nM.
Take `COCc1cc(C(=O)c2cncnc2N[C@@H]2C[C@H](COS(N)(=O)=O)[C@@H](O)C2)sc1Cl` [I-218, {(1R,2S,4R)-4-[(5-{[5-Chloro-4-(methoxymethyl)-2-thienyl]carbonyl}pyrimidin-4-yl)amino]-2-hydroxycyclopentyl}methyl sulfamate]: the inhibition at 0.111 µM (Concentration 0.111 μM) was 33%. Besides, where the note is “class symbols A/B/C”, the IC50 lay in the range of 100 to 1000 nM.
On the same counts, the results for `NS(=O)(=O)OC[C@H]1C[C@@H](Nc2ncncc2C(=O)c2cc(Cc3cncc(Cl)c3)cs2)C[C@@H]1O` [I-210, [(1R,2S,4R)-4-{[5-({4-[(5-chloropyridin-3-yl)methyl]-2-thienyl}carbonyl)pyrimidin-4-yl]amino}-2-hydroxycyclopentyl]methyl sulfamate] are 50% and 100 to 1000 nM.
